Experimental data published in patent US4616081A, “Cephalosporin compounds” (Asahi Kasei Kogyo Kabushiki Kaisha, priority 1982, dated 1986).

Legend:
Staph. aureus MS27 = assay: MIC against Staph. aureus MS27; type: cell-based
Method: (§1) Nextly, antibacterial activity or minimum inhibitory concentration (MIC) was measured and the results are shown in Table 1 with respect to the following representative compounds according to the present invention. [drawing 19]
(§2) With respect to Compound Nos. 14 and 15, antibacterial activity or minimum inhibitory concentration (MIC) was measured and the results are shown in Table 2. [drawing 21]

[1] = tested on: Enterobact. aerogenes 0655; assay: MIC against Enterobact. aerogenes 0655; type: cell-based
Method: as §1, §2

Bac. subtilis ATCC 6633 = assay: MIC against Bac. subtilis ATCC 6633; type: cell-based; conditions: Bacterial count inoculated 10^6 cells/ml
Method: as §2

Staph. aureus ATCC 6538P = assay: MIC against Staph. aureus ATCC 6538P; type: cell-based
Method: as §1, §2

[2] = tested on: Klebs. pneumoniae ATCC 10031; assay: MIC against Klebs. pneumoniae ATCC 10031; type: cell-based
Method: as §1, §2

Serratia marcescens = assay: MIC against Serratia marcescens; type: cell-based
Method: as §1, §2

E. coli NIHJ-JC2 = assay: MIC against E. coli NIHJ-JC2; type: cell-based
Method: as §1, §2

Proteus rettgeri ACR = assay: MIC against Proteus rettgeri ACR; type: cell-based
Method: as §1, §2

Sarcina lutea ATCC 9341 = assay: MIC against Sarcina lutea ATCC 9341; type: cell-based
Method: as §1, §2

[3] = tested on: Salm. enteritidis Gaertner; assay: MIC against Salm. enteritidis Gaertner; type: cell-based
Method: as §1, §2

E. coli W3630 = assay: MIC against E. coli W3630; type: cell-based
Method: as §1, §2

[4] = tested on: Enterobact. cloacae GN336; assay: MIC against Enterobact. cloacae GN336; type: cell-based
Method: as §1, §2

Strept. pyogenes NY5 = assay: MIC against Strept. pyogenes NY5; type: cell-based; conditions: Bacterial count inoculated 10^6 cells/ml
Method: as §1, §2

[5] = tested on: Citrobact. freundii GN346; assay: MIC against Citrobact. freundii GN346; type: cell-based
Method: as §1, §2

Shigella sonnei E33 = assay: MIC against Shigella sonnei E33; type: cell-based
Method: as §1, §2

E. coli W3630 PS3 = assay: MIC against E. coli W3630 PS3; type: cell-based
Method: as §1, §2

Ps. aeruginosa 0812 M2 = assay: MIC against Ps. aeruginosa 0812 M2; type: cell-based; conditions: Bacterial count inoculated 10^6 cells/ml
Method: as §1, §2

Proteus morganii 0239 = assay: MIC against Proteus morganii 0239; type: cell-based
Method: as §1, §2

E. coli W3630 RGN238 = assay: MIC against E. coli W3630 RGN238; type: cell-based
Staph. pyogenes NY5 = assay: MIC against Staph. pyogenes NY5; type: cell-based
E. coli W3630 RGN14 = assay: MIC against E. coli W3630 RGN14; type: cell-based
[6] = maximum blood concentration after oral administration in Wister rats (HPLC and Bioassay); type: in vivo; conditions: Wister rat, fasted, 30 mg/kg, solution of pH 7 in phosphate buffer
Method: Further in the compounds according to the present invention, intestinal absorption is improved by the introduction of amino acids at the 3-position thereof. For example, comparison of the maximum blood concentration of the Compound Nos. 2, 3, 7, 8, 14, 15 and 23 with that of Comparative Compound (b) establishes and affirms the effects, as is shown below. In the above test, the method for measurement of blood concentration was as follows. Rate: Wister rat weighing 170 to 220 g Dose: 30 mg/kg Wister rats were fasted from the previous night but freely accessible to water. Each of drugs was administered as a solution of pH 7 in a phosphate buffer, when orally administered. The blood concentration was measured in accordance with the High Performance Liquid Chromatography (HPLC) method and the Bioassay method by using E. coli as bacteria for test.

E. coli 0205 = assay: MIC against E. coli 0205; type: cell-based
[7] = acute toxicity test using mice, intraperitoneal; conditions: mouse, in vivo, ip
Excerpt: In addition to excellent antibacterial activity, the compounds of the present invention are low in toxicity. For example, in acute toxicity test using mice, the following results were obtained with Compound Nos. 2, 3, 7, 14, 15 and 23 which were intraperitoneally administered.

[8] = Bacterial count inoculated 10^6 cells/ml
[9] = Bacterial count inoculated 10^8 cells/ml
[10] = Table 3, second listing of the strain, head prints 10^6 cells/ml

Cc1nnc(SCC2=C(C(=O)O)N3C(=O)C(NC(=O)Cn4cnnn4)C3SC2)s1 (stereo not drawn) [Comparative Compound (a), reference compound]
Minimum Inhibitory Concentration (MIC) (Staph. aureus MS27; [8]): 1.6 | Minimum Inhibitory Concentration (MIC) [1, 8]: > 100 | Minimum Inhibitory Concentration (MIC) (Bac. subtilis ATCC 6633): 0.2 | Minimum Inhibitory Concentration (MIC) (Staph. aureus ATCC 6538P; [8]): 0.4 | Minimum Inhibitory Concentration (MIC) [2, 8]: 3.1 | Minimum Inhibitory Concentration (MIC) (Serratia marcescens; [8]): > 100 | Minimum Inhibitory Concentration (MIC) (E. coli NIHJ-JC2; [8]): 1.6 | Minimum Inhibitory Concentration (MIC) (Proteus rettgeri ACR; [8]): > 100 | Minimum Inhibitory Concentration (MIC) (Sarcina lutea ATCC 9341; [8]): 0.8 | Minimum Inhibitory Concentration (MIC) [3, 8]: 3.1 | Minimum Inhibitory Concentration (MIC) (E. coli W3630; [8]): 3.1 | Minimum Inhibitory Concentration (MIC) [4, 8]: > 100 | Minimum Inhibitory Concentration (MIC) (Strept. pyogenes NY5): 0.2 | Minimum Inhibitory Concentration (MIC) [5, 8]: > 100 | Minimum Inhibitory Concentration (MIC) (Shigella sonnei E33; [8]): 1.6 | Minimum Inhibitory Concentration (MIC) (E. coli W3630 PS3; [8]): 3.1 | Minimum Inhibitory Concentration (MIC) (Ps. aeruginosa 0812 M2): > 100 | Minimum Inhibitory Concentration (MIC) (Proteus morganii 0239; [8]): > 100

CO/N=C(\C(=O)N[C@@H]1C(=O)N2C(C(=O)O)=C(COC(C)=O)CS[C@H]12)c1csc(N)n1 [Comparative Compound (b), reference compound]
Minimum Inhibitory Concentration (MIC) (Staph. aureus MS27; [8]): 1.6 | Minimum Inhibitory Concentration (MIC) (Staph. aureus MS27; [9]): 3.1 | Minimum Inhibitory Concentration (MIC) (E. coli W3630 RGN238; [8]): ≤ 0.2 | Minimum Inhibitory Concentration (MIC) (E. coli W3630 RGN238; [10]): ≥ 100 | Minimum Inhibitory Concentration (MIC) [1, 8]: ≤ 0.2 | Minimum Inhibitory Concentration (MIC) [1, 9]: 50 | Minimum Inhibitory Concentration (MIC) (Staph. aureus ATCC 6538P; [8]): 1.6 | Minimum Inhibitory Concentration (MIC) (Staph. aureus ATCC 6538P; [9]): 3.1 | Minimum Inhibitory Concentration (MIC) [2, 8]: ≤ 0.2 | Minimum Inhibitory Concentration (MIC) [2, 9]: 25 | Minimum Inhibitory Concentration (MIC) [2, 10]: 1.6 | Minimum Inhibitory Concentration (MIC) (Serratia marcescens; [8]): ≤ 0.2 | Minimum Inhibitory Concentration (MIC) (Serratia marcescens; [9]): 50 | Minimum Inhibitory Concentration (MIC) (Serratia marcescens; [10]): > 100 | Minimum Inhibitory Concentration (MIC) (E. coli NIHJ-JC2; [9]): 6.3 | Minimum Inhibitory Concentration (MIC) (E. coli NIHJ-JC2; [10]): 25 | Minimum Inhibitory Concentration (MIC) (Proteus rettgeri ACR; [8]): ≤ 0.2 | Minimum Inhibitory Concentration (MIC) (Proteus rettgeri ACR; [10]): 100 | Minimum Inhibitory Concentration (MIC) (Sarcina lutea ATCC 9341; [8]): ≤ 0.2 | Minimum Inhibitory Concentration (MIC) (Sarcina lutea ATCC 9341; [9]): ≤ 0.2 | Minimum Inhibitory Concentration (MIC) (Staph. pyogenes NY5; [8]): ≤ 0.2 | Minimum Inhibitory Concentration (MIC) (Staph. pyogenes NY5; [9]): 0.2 | Minimum Inhibitory Concentration (MIC) [3, 8]: ≤ 0.2 | Minimum Inhibitory Concentration (MIC) [3, 9]: 6.3 | Minimum Inhibitory Concentration (MIC) (E. coli W3630; [8]): ≤ 0.2 | Minimum Inhibitory Concentration (MIC) (E. coli W3630; [9]): 25 | Minimum Inhibitory Concentration (MIC) (E. coli W3630; [10]): 6.3 | Minimum Inhibitory Concentration (MIC) [4, 8]: ≤ 0.2 | Minimum Inhibitory Concentration (MIC) [4, 9]: 50 | Minimum Inhibitory Concentration (MIC) [4, 10]: 50 | Minimum Inhibitory Concentration (MIC) (E. coli W3630 RGN14; [8]): ≤ 0.2 | Minimum Inhibitory Concentration (MIC) (E. coli W3630 RGN14; [10]): 100 | Cmax [6]: 200 ng/mL | Minimum Inhibitory Concentration (MIC) [5, 8]: 25 | Minimum Inhibitory Concentration (MIC) [5, 9]: 100 | Minimum Inhibitory Concentration (MIC) (E. coli 0205; [8]): 0.4 | Minimum Inhibitory Concentration (MIC) (E. coli 0205; [10]): 50 | Minimum Inhibitory Concentration (MIC) (Shigella sonnei E33; [8]): ≤ 0.2 | Minimum Inhibitory Concentration (MIC) (Shigella sonnei E33; [9]): 1.6 | Minimum Inhibitory Concentration (MIC) (Shigella sonnei E33; [10]): 3.1 | Minimum Inhibitory Concentration (MIC) (E. coli W3630 PS3; [8]): ≤ 0.2 | Minimum Inhibitory Concentration (MIC) (E. coli W3630 PS3; [9]): 25 | Minimum Inhibitory Concentration (MIC) (Proteus morganii 0239; [8]): ≤ 0.2 | Minimum Inhibitory Concentration (MIC) (Proteus morganii 0239; [9]): 50

CO/N=C(\C(=O)N[C@@H]1C(=O)N2C(C(=O)O)=C(CSc3nc(C(=O)O)c(N)n3C)CS[C@H]12)c1csc(N)n1 [Compound No. 2]
LD50 [7]: 9000 to 10000 mg/kg | Minimum Inhibitory Concentration (MIC) (Staph. aureus MS27; [8]): 6.3 | Minimum Inhibitory Concentration (MIC) [1, 8]: 1.6 | Minimum Inhibitory Concentration (MIC) (Staph. aureus ATCC 6538P; [8]): 3.1 | Minimum Inhibitory Concentration (MIC) [2, 8]: 0.1 | Minimum Inhibitory Concentration (MIC) (Serratia marcescens; [8]): 0.2 | Minimum Inhibitory Concentration (MIC) (E. coli NIHJ-JC2; [8]): 0.2 | Minimum Inhibitory Concentration (MIC) (Proteus rettgeri ACR; [8]): 0.2 | Minimum Inhibitory Concentration (MIC) (Sarcina lutea ATCC 9341; [8]): 0.2 | Minimum Inhibitory Concentration (MIC) [3, 8]: 0.2 | Minimum Inhibitory Concentration (MIC) (E. coli W3630; [8]): 0.2 | Minimum Inhibitory Concentration (MIC) [4, 8]: 0.8 | Minimum Inhibitory Concentration (MIC) (Strept. pyogenes NY5): 0.1 | Cmax [6]: 16000 ng/mL | Minimum Inhibitory Concentration (MIC) [5, 8]: 25 | Minimum Inhibitory Concentration (MIC) (Shigella sonnei E33; [8]): 0.4 | Minimum Inhibitory Concentration (MIC) (E. coli W3630 PS3; [8]): 0.2 | Minimum Inhibitory Concentration (MIC) (Ps. aeruginosa 0812 M2): 6.3 | Minimum Inhibitory Concentration (MIC) (Proteus morganii 0239; [8]): 0.1
